We go through one compound from patent publication US20060084704A1, “Methods and compositions for enhancing degradation of nuclear receptor transcription factors and uses thereof” (priority 2004, published 2006).

In test [1] the target is T1, wild type androgen receptor (Homo sapiens, UniProt P10275).
T1 construct: expressed in transfected cells; host or cells: CV-1 (green monkey kidney cells lacking an androgen receptor)
T1 sequence (P10275 1-920): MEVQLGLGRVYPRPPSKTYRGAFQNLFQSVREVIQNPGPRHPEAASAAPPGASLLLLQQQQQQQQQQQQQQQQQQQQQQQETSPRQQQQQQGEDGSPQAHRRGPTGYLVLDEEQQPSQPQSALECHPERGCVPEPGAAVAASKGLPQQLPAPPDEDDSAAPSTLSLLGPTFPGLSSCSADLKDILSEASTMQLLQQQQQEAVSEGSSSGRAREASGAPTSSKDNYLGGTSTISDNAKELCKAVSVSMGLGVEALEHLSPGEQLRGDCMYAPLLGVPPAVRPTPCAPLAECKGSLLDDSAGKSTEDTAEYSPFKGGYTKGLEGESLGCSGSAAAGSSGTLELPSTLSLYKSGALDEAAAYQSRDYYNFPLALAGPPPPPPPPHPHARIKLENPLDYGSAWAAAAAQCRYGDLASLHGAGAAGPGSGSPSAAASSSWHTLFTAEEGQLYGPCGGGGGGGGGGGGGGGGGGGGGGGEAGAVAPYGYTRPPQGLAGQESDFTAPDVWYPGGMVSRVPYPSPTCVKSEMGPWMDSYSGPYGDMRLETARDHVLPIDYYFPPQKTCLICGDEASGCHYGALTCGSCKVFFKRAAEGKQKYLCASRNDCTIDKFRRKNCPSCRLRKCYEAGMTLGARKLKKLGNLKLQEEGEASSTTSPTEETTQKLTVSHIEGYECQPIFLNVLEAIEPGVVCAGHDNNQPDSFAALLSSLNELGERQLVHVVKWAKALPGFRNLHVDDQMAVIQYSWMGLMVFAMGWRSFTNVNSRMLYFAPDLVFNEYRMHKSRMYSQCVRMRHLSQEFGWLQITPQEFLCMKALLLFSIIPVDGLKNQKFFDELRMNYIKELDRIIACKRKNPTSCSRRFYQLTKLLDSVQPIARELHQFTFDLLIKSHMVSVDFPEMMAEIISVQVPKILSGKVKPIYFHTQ
Put plainly: Androgen receptor transactivation assay in CV-1 cells (MMTV-luciferase reporter). The test is classed as cell-based. The settings on record: CV-1 cells transfected with wild type AR, DHT 1 nM, JC9 0 uM to 7.5 uM. The text has this:
Prostate cancer cells, non-prostate tumor cells, and normal cells can be used in this transient transfection assay, which measures transactivation of the androgen receptor (AR) and can be used to detect a reduction of AR activity caused by AR degradation. In the provided non-limiting example, CV-1 (green monkey kidney cells lacking an androgen receptor) and LNCaP cells (prostate cancer cells containing an endogenous mutant AR), were transfected with a plasmid carrying an androgen response element (ARE) and a reporter gene.
Both the CV-1 and LNCaP cells (obtained from ATCC, Manassas, Va.) were maintained in […] medium supplemented with penicillin (25 units/millilter), streptomycin (25 micrograms/milliliter), and 10% heat-inactivated fetal bovine serum (FBS). Cells were plated in 35-millimeter dishes at a concentration of 1-2×10^5cells/well and cultured at 37 degrees Celsius in an incubator under a 5% carbon dioxide atmosphere. […] The cells were lysed, and luciferase activity of the lysate was measured with the Dual-Luciferase Reporter Assay System (Promega, Madison, Wis.). Data were expressed as relative luciferase activity normalized to the internal luciferase positive control. […]
A general note: Reporter assays use an easily measured gene product as a stand-in for the process of interest.

In the next test the target is T2, androgen receptor (AR) (Homo sapiens, UniProt P10275).
T2 construct: endogenous in cells; host or cells: T47D
T2 sequence (P10275 1-920): T1 sequence (P10275 1-920)
Kind of test: Western blot of T47D cell lysates, AR. It is filed as cell-based. The settings on record: 5 or 10 micromolar, presence or absence of estradiol (E2). As to the method: Human prostate cancer LNCaP cells and T47D cells were plated at a density of 7×10^5 cells per 60 millimeter tissue culture dish in […] (RPMI) medium containing 10% FBS. The medium was changed to RPMI or DME medium containing 10% charcoal-stripped serum 24 hours later to deplete cellular androgens or estrogens. After another 24 hours, treatment with the test compounds began. The test dose of JC15 was 1 or 2 micromolar and the test does of JC9 was 1, 5 and 10 micromolar. LNCap cells also received dihydrotestosterone (DHT) (3 nanomolar). Control cells received a corresponding amount of the vehicle, dimethylsulfoxide (DMSO) (<0.04%) for an equivalent exposure time. Cells were incubated with JC15 for 24 or 48 hours, and were lysed in 250 microliters of 1×SDS/PAGE loading buffer. Approximately 40 micrograms of total cellular protein was loaded in each lane of a pre-cast gel (NuPAGE, Invitrogen). Protein separation and transfer were performed following the manufacturer's instructions.
(In western blotting, separated proteins are transferred to a membrane and probed.)

For `COc1ccc(C=CC(=O)C=C(O)C=Cc2ccc(OC)c(OC)c2)cc1OC` [JC9, 5-hydroxy-1,7-bis(3,4-dimethoxyphenyl)-1,4,6-heptatrien-3-one], the “DHT-induced androgen receptor transcriptional activation (relative luciferase activity)” value in test [1] is given as “capable of inhibiting DHT-induced androgen receptor transcriptional activation in a dose dependent manner”. On androgen receptor (AR), the “cellular concentration of AR” value is reported as “decreased”.
